Test results published in US6358885B1, “Substituted phenylheterocyclic herbicides” (Mississippi State University, priority 1992, dated 2002).

How the values were obtained:
[1] = tested on: barnyardgrass; assay: Test B preemergence/postemergence greenhouse plant response rating 0 to 10; assay type: in vivo, Echinochloa crus-galli; conditions: 0 to 10 scale
Summary of the method: (§1)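 Planted seeds are treated preemergence with compound dissolved in a non-phytotoxic solvent, while postemergence applications go onto plants of two to eighteen cm. Plants stay in the greenhouse twelve to sixteen days and are then rated visually relative to controls.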

[2] = tested on: giant foxtail; assay: as above; assay type: in vivo, Setaria faberii; conditions: 0 to 10 scale
Summary of the method: as §1

[3] = tested on: lambsquarters; assay: as above; assay type: in vivo, Chenopodium album; conditions: 0 to 10 scale
Summary of the method: as §1

[4] = tested on: sugar beet; assay: as above; assay type: in vivo, Beta vulgaris; conditions: 0 to 10 scale
Summary of the method: as §1

[5] = tested on: velvetleaf; assay: as above; assay type: in vivo, Abutilon theophrasti; conditions: 0 to 10 scale
Summary of the method: as §1

[6] = tested on: cotton; assay: Test C preemergence/postemergence greenhouse plant response rating 0 to 100; assay type: in vivo, Gossypium hirsutum; conditions: for Plant response rating, Cotton: 62 g/ha, 0 to 100 scale
Summary of the method: (§2)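 Compounds in non-phytotoxic solvent went onto sandy loam before emergence (seeded one day earlier) or onto plants at the one-to-four leaf stage. Duck salad was treated via flood water (~2.5 cm, maintained) over silt loam.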

[7] = tested on: crabgrass; assay: as above; assay type: in vivo, Digitaria sanguinalis; conditions: for Plant response rating, Crabgrass: 62 g/ha, 0 to 100 scale
Summary of the method: as §2

[8] = tested on: pigweed; assay: as above; assay type: in vivo, Amaranthusretroflexus; conditions: for Plant response rating Pigweed: 62 g/ha, 0 to 100 scale
Summary of the method: as §2

[9] = tested on: sorghum; assay: as above; assay type: in vivo, Sorghum bicolor
Summary of the method: as §2

[10] = tested on: velvetleaf; assay: as above; assay type: in vivo, Abutilon theophrasti
Summary of the method: as §2

[11] = tested on: wild oat; assay: as above; assay type: in vivo, Avena fatua
Summary of the method: as §2

[12] = tested on: rice; assay: Test C flood test plant response rating 0 to 100; assay type: in vivo, Oryza sativa
Summary of the method: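 Compounds in non-phytotoxic solvent applied preemergence to sandy loam one day after planting, postemergence at the 1–4 leaf stage, or to ~2.5 cm floodwater over silt loam.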

[13] = POSTEMERGENCE, 62 g/ha, 0 to 100 scale

## CC(C)Oc1cc(-c2nn3c(c2Br)CCCC3)c(F)cc1Cl [Compound 38]
[1]; POSTEMERGENCE, Rate 50 g/ha
  Plant response rating, Barnyardgrass: 6
[1]; POSTEMERGENCE, Rate 200 g/ha
  Plant response rating, Barnyardgrass: 8
[1]; PREEMERGENCE, Rate 50 g/ha
  Plant response rating, Barnyardgrass: 0
[1]; Rate 200 g/ha, PREEMERGENCE
  Plant response rating, Barnyardgrass: 1
[2]; POSTEMERGENCE, Rate 50 g/ha
  Plant response rating, Giant foxtail: 5
[2]; PREEMERGENCE, Rate 50 g/ha
  Plant response rating, Giant foxtail: 2
[2]; Rate 200 g/ha, POSTEMERGENCE
  Plant response rating, Giant foxtail: 7
[2]; Rate 200 g/ha, PREEMERGENCE
  Plant response rating, Giant foxtail: 9
[3]; POSTEMERGENCE, Rate 50 g/ha
  Plant response rating, Lambsquarter: 10
[3]; PREEMERGENCE, Rate 50 g/ha
  Plant response rating, Lambsquarter: 10
[3]; Rate 200 g/ha, POSTEMERGENCE
  Plant response rating, Lambsquarter: 10
[3]; Rate 200 g/ha, PREEMERGENCE
  Plant response rating, Lambsquarter: 10
[4]; POSTEMERGENCE, Rate 50 g/ha
  Plant response rating, Sugar beet: 10
[4]; PREEMERGENCE, Rate 50 g/ha
  Plant response rating, Sugar beet: 8
[4]; Rate 200 g/ha, POSTEMERGENCE
  Plant response rating, Sugar beet: 10
[4]; Rate 200 g/ha, PREEMERGENCE
  Plant response rating, Sugar beet: 10
[5]; POSTEMERGENCE, Rate 50 g/ha
  Plant response rating, Velvetleaf: 6
[5]; PREEMERGENCE, Rate 50 g/ha
  Plant response rating, Velvetleaf: 0
[5]; Rate 200 g/ha, POSTEMERGENCE
  Plant response rating, Velvetleaf: 10
[5]; Rate 200 g/ha, PREEMERGENCE
  Plant response rating, Velvetleaf: 7
[6]; POSTEMERGENCE
  Plant response rating, Cotton: 100
[6]; POSTEMERGENCE, Rate 1 g/ha
  Plant response rating (0 to 100), Cotton: 60
[6]; POSTEMERGENCE, Rate 4 g/ha
  Plant response rating (0 to 100), Cotton: 80
[6]; PREEMERGENCE
  Plant response rating, Cotton: 0
[6]; PREEMERGENCE, Rate 1 g/ha
  Plant response rating (0 to 100), Cotton: 0
[6]; PREEMERGENCE, Rate 4 g/ha
  Plant response rating (0 to 100), Cotton: 0
[6]; Rate 16 g/ha, POSTEMERGENCE
  Plant response rating (0 to 100), Cotton: 90
[6]; Rate 16 g/ha, PREEMERGENCE
  Plant response rating (0 to 100), Cotton: 0
[7]; POSTEMERGENCE
  Plant response rating, Crabgrass: 40
[7]; POSTEMERGENCE, Rate 1 g/ha
  Plant response rating (0 to 100), Crabgrass: 10
[7]; POSTEMERGENCE, Rate 4 g/ha
  Plant response rating (0 to 100), Crabgrass: 20
[7]; PREEMERGENCE
  Plant response rating, Crabgrass: 30
[7]; PREEMERGENCE, Rate 1 g/ha
  Plant response rating (0 to 100), Crabgrass: 0
[7]; PREEMERGENCE, Rate 4 g/ha
  Plant response rating (0 to 100), Crabgrass: 0
[7]; Rate 16 g/ha, POSTEMERGENCE
  Plant response rating (0 to 100), Crabgrass: 30
[7]; Rate 16 g/ha, PREEMERGENCE
  Plant response rating (0 to 100), Crabgrass: 10
[8]; POSTEMERGENCE
  Plant response rating Pigweed: 100
[8]; POSTEMERGENCE, Rate 1 g/ha
  Plant response rating (0 to 100), Pigweed: 10
[8]; POSTEMERGENCE, Rate 4 g/ha
  Plant response rating (0 to 100), Pigweed: 30
[8]; PREEMERGENCE
  Plant response rating Pigweed: 100
[8]; PREEMERGENCE, Rate 1 g/ha
  Plant response rating (0 to 100), Pigweed: 0
[8]; PREEMERGENCE, Rate 4 g/ha
  Plant response rating (0 to 100), Pigweed: 0
[8]; Rate 16 g/ha, POSTEMERGENCE
  Plant response rating (0 to 100), Pigweed: 100
[8]; Rate 16 g/ha, PREEMERGENCE
  Plant response rating (0 to 100), Pigweed: 90
[9]; [13]
  Plant response rating, Sorghum: 70
[9]; POSTEMERGENCE, Rate 1 g/ha
  Plant response rating (0 to 100), Sorghum: 20
[9]; POSTEMERGENCE, Rate 4 g/ha
  Plant response rating (0 to 100), Sorghum: 30
[9]; PREEMERGENCE, Rate 1 g/ha
  Plant response rating (0 to 100), Sorghum: 0
[9]; PREEMERGENCE, Rate 4 g/ha
  Plant response rating (0 to 100), Sorghum: 0
[9]; Rate 16 g/ha, POSTEMERGENCE
  Plant response rating (0 to 100), Sorghum: 60
[9]; Rate 16 g/ha, PREEMERGENCE
  Plant response rating (0 to 100), Sorghum: 10
[10]; [13]
  Plant response rating, Velvetleaf: 90
[10]; POSTEMERGENCE, Rate 1 g/ha
  Plant response rating (0 to 100), Velvetleaf: 10
[10]; POSTEMERGENCE, Rate 4 g/ha
  Plant response rating (0 to 100), Velvetleaf: 10
[10]; PREEMERGENCE, Rate 1 g/ha
  Plant response rating (0 to 100), Velvetleaf: 0
[10]; PREEMERGENCE, Rate 4 g/ha
  Plant response rating (0 to 100), Velvetleaf: 20
[10]; Rate 16 g/ha, POSTEMERGENCE
  Plant response rating (0 to 100), Velvetleaf: 80
[10]; Rate 16 g/ha, PREEMERGENCE
  Plant response rating (0 to 100), Velvetleaf: 100
[11]; [13]
  Plant response rating, Wild oat: 50
[11]; POSTEMERGENCE, Rate 1 g/ha
  Plant response rating (0 to 100), Wild oat: 0
[11]; POSTEMERGENCE, Rate 4 g/ha
  Plant response rating (0 to 100), Wild oat: 10
[11]; PREEMERGENCE, Rate 1 g/ha
  Plant response rating (0 to 100), Wild oat: 0
[11]; PREEMERGENCE, Rate 4 g/ha
  Plant response rating (0 to 100), Wild oat: 0
[11]; Rate 16 g/ha, POSTEMERGENCE
  Plant response rating (0 to 100), Wild oat: 30
[11]; Rate 16 g/ha, PREEMERGENCE
  Plant response rating (0 to 100), Wild oat: 0
[12]; POSTEMERGENCE section, flood test, Rate 1 g/ha
  Plant response rating (0 to 100), Rice Japonica: 0
[12]; POSTEMERGENCE section, flood test, Rate 4 g/ha
  Plant response rating (0 to 100), Rice Japonica: 10
[12]; Rate 16 g/ha, under POSTEMERGENCE head (flood test species)
  Plant response rating (0 to 100), Rice Japonica: 10
[12]; flood test species listed under POSTEMERGENCE, 62 g/ha, 0 to 100 scale
  Plant response rating Rice Japonica: 30
